Values joined by “and” are separate entries in the source; they are usually repeats but may differ in a detail not shown here. Identical values can stand only once.
Experiments:
Type in all cases: cell-based, Chinese hamster
[1] = system: cell line 25H9 (CHO cells that produce IL-1R-II protein); experiment: Example 2: optimization of temperature and decitabine concentration, IL-1R-II production
Protocol: (§1) About 2×10^6 cells of cell line 25H9 were inoculated into 30 milliliters of serum-free medium and incubated at the temperatures indicated in Table 1 in vented shake flasks. At the times indicated in Table 1, samples were taken from each flask to determine IL-1R-II titer, cell number, and cell viability. IL-1R-II protein titer was determined by ELISA assay. Cell number was determined by counting cells in a hemocytometer. Cell viability was determined by trypan blue staining and counting stained cells in a hemocytometer. Cumulative viable cell density (CVCD) is the area under the curve of a plot of the viable cell density versus time (in units of cells/ml/day). Productivity (pg of IL-1R-II/cell/day) was determined by dividing the protein titer on a particular day by the CVCD on the same day. Cells were fed with amino acids on days 2 and 5, and dextrose was added periodically in order to maintain levels above 2.0 g/L. All samples were done in duplicate, and the data shown is an average value.
(§2) To determine an optimum temperature and decitabine concentration, three temperatures (30° C., 31° C., and 32° C.) and three decitabine concentrations (10 μM, 15 μM, and 20 μM) were tested. A 31° C. culture containing 0.5 mM sodium butyrate was grown as a control. […] See e.g. International Application Nos. WO 89/06686 and WO 87/05626. The experiment was performed as in Example 1 except that the inducer concentrations, temperatures, and days at which data was collected are as indicated in Table 2 and FIG. 1.

[2] = Example 2: cell number and viability; conditions: Chinese hamster; for viability at 6 day, 10 μM / viability at 8 day, 10 μM / viability at 0 day, 10 μM / viability at 3 day, 10 μM: 10 μM decitabine; for viability at 6 day, 10 μM / viability at 6 day, 15 μM / viability at 6 day, 20 μM: day 6; for viability at 8 day, 10 μM / viability at 8 day, 15 μM / viability at 8 day, 20 μM: day 8; for viability at 0 day, 15 μM / viability at 3 day, 15 μM / viability at 6 day, 15 μM / viability at 8 day, 15 μM: 15 μM decitabine; for viability at 0 day, 15 μM / viability at 0 day, 20 μM / viability at 0 day, 10 μM: day 0; for viability at 3 day, 15 μM / viability at 3 day, 20 μM / viability at 3 day, 10 μM: day 3; for viability at 0 day, 20 μM / viability at 3 day, 20 μM / viability at 6 day, 20 μM / viability at 8 day, 20 μM: 20 μM decitabine
Protocol: as §1, §2

[3] = system: cell line 25H9 (CHO cells that produce IL-1R-II protein); experiment: Example 3: induction with 5-bromo-2′-deoxycytidine 5′-monophosphate, IL-1R-II production; conditions: 31° C., 10 μM
Protocol: as §1
The following experiment compares the effects of 5-bromo-2′-deoxycytidine 5′-monophosphate and 5-aza-2′-deoxycytidine on induction of protein production. The experiment was done as described in Example 1 with the following exceptions. All cultures were incubated at 31° C., and cell number and viability were determined using a Guava PCA Cytometer (available from Guava Technologies, Hayward, Calif., USA). Samples were done in triplicate.

[4] = 30° C., 10 μM decitabine, day 3
[5] = 30° C., 10 μM decitabine, day 6
[6] = 30° C., 10 μM decitabine, day 8
[7] = 30° C., 15 μM decitabine, day 3
[8] = 30° C., 15 μM decitabine, day 6
[9] = 30° C., 20 μM decitabine, day 3
[10] = 30° C., 20 μM decitabine, day 6
[11] = 30° C., 20 μM decitabine, day 8
[12] = 31° C., 10 μM decitabine, day 3
[13] = 31° C., 10 μM decitabine, day 6
[14] = 31° C., 10 μM decitabine, day 8
[15] = 31° C., 15 μM decitabine, day 3
[16] = 31° C., 15 μM decitabine, day 6
[17] = 31° C., 15 μM decitabine, day 8
[18] = 31° C., 20 μM decitabine, day 3
[19] = 31° C., 20 μM decitabine, day 6
[20] = 31° C., 20 μM decitabine, day 8
[21] = 32° C., 10 μM decitabine, day 3
[22] = 32° C., 10 μM decitabine, day 6
[23] = 32° C., 10 μM decitabine, day 8
[24] = 32° C., 15 μM decitabine, day 3
[25] = 32° C., 15 μM decitabine, day 6
[26] = 32° C., 20 μM decitabine, day 3
[27] = 32° C., 20 μM decitabine, day 6
[28] = 32° C., 20 μM decitabine, day 8
[29] = CHO cell line 25H9 producing IL-1R-II, 30° C.
[30] = cell line 25H9 (CHO cells), 30° C.
[31] = cell line 25H9 (CHO cells), 31° C.
[32] = cell line 25H9 (CHO cells), 32° C.

## Nc1ncn([C@H]2C[C@H](O)[C@@H](CO)O2)c(=O)n1 [decitabine, 5-aza-2′-deoxycytidine]
[1]; 10 μM decitabine, 8 days
  IL-1R-II produced at 31° C. versus 30° C. or 32° C. (FIG. 1): more IL-1R-II
[1]; 30° C.
  IL-1R-II titer in 20 μM versus 10 μM or 15 μM decitabine: higher titer of IL-1R-II
[1]; 30° C., 10 μM decitabine, day 0
  IL1R-II Titer: 0.0 µg/mL
[1]; [4]
  IL1R-II Titer: 68.2 µg/mL
  Productivity: 9.2 pg IL-1R-II/cell/day
[1]; [5]
  IL1R-II Titer: 156.5 µg/mL
  Productivity: 10.9 pg IL-1R-II/cell/day
[1]; [6]
  IL1R-II Titer: 260.5 µg/mL
  Productivity: 14.4 pg IL-1R-II/cell/day
[1]; 30° C., 15 μM decitabine, day 0
  IL1R-II Titer: 0.0 µg/mL
[1]; [7]
  IL1R-II Titer: 77.2 µg/mL
  Productivity: 11.3 pg IL-1R-II/cell/day
[1]; [8]
  IL1R-II Titer: 173.0 µg/mL
  Productivity: 12.4 pg IL-1R-II/cell/day
[1]; 30° C., 15 μM decitabine, day 8
  IL1R-II Titer: 283.0 µg/mL
[1]; 30° C., 20 μM decitabine, day 0
  IL1R-II Titer: 0.0 µg/mL
[1]; [9]
  IL1R-II Titer: 83.6 µg/mL
  Productivity: 10.6 pg IL-1R-II/cell/day
[1]; [10]
  IL1R-II Titer: 219.0 µg/mL
  Productivity: 13.4 pg IL-1R-II/cell/day
[1]; [11]
  IL1R-II Titer: 346.0 µg/mL
  Productivity: 16.9 pg IL-1R-II/cell/day
[1]; 31° C., 10 μM decitabine, 8 days
  IL-1R-II titer versus culture containing 0.5 mM sodium butyrate: higher titer
[1]; 31° C., 10 μM decitabine, day 0
  IL1R-II Titer: 0.0 µg/mL
[1]; [12]
  IL1R-II Titer: 164.0 µg/mL
  Productivity: 18.8 pg IL-1R-II/cell/day
[1]; [13]
  IL1R-II Titer: 448.5 µg/mL
  Productivity: 21.3 pg IL-1R-II/cell/day
[1]; [14]
  IL1R-II Titer: 1087 µg/mL and 1087.0 µg/mL
  Productivity: 38.1 pg IL-1R-II/cell/day
[1]; 31° C., 15 μM decitabine, day 0
  IL1R-II Titer: 0.0 µg/mL
[1]; [15]
  IL1R-II Titer: 174.0 µg/mL
  Productivity: 22.0 pg IL-1R-II/cell/day
[1]; [16]
  IL1R-II Titer: 440.0 µg/mL
  Productivity: 22.9 pg IL-1R-II/cell/day
[1]; [17]
  IL1R-II Titer: 718.0 µg/mL
  Productivity: 27.8 pg IL-1R-II/cell/day
[1]; 31° C., 20 μM decitabine, day 0
  IL1R-II Titer: 0.0 µg/mL
[1]; [18]
  IL1R-II Titer: 162.0 µg/mL
  Productivity: 17.6 pg IL-1R-II/cell/day
[1]; [19]
  IL1R-II Titer: 426.0 µg/mL
  Productivity: 19.6 pg IL-1R-II/cell/day
[1]; [20]
  IL1R-II Titer: 774.5 µg/mL
  Productivity: 27.1 pg IL-1R-II/cell/day
[1]; 31° C., all cultures grown in decitabine
  productivity on a per cell basis versus control culture grown in butyrate: comparable to, and in some cases greater than
[1]; 32° C.
  IL-1R-II produced in 10 μM versus 15 μM or 20 μM decitabine: produced more IL-1R-II
[1]; 32° C., 10 μM decitabine, day 0
  IL1R-II Titer: 0.0 µg/mL
[1]; [21]
  IL1R-II Titer: 186.0 µg/mL
  Productivity: 23.1 pg IL-1R-II/cell/day
[1]; [22]
  IL1R-II Titer: 407.0 µg/mL
  Productivity: 21.5 pg IL-1R-II/cell/day
[1]; [23]
  IL1R-II Titer: 610.5 µg/mL
  Productivity: 24.5 pg IL-1R-II/cell/day
[1]; 32° C., 15 μM decitabine, day 0
  IL1R-II Titer: 0.0 µg/mL
[1]; [24]
  IL1R-II Titer: 189.0 µg/mL
  Productivity: 23.5 pg IL-1R-II/cell/day
[1]; [25]
  IL1R-II Titer: 410.0 µg/mL
  Productivity: 22.5 pg IL-1R-II/cell/day
[1]; 32° C., 15 μM decitabine, day 8
  IL1R-II Titer: 478.0 µg/mL
[1]; 32° C., 20 μM decitabine, day 0
  IL1R-II Titer: 0.0 µg/mL
[1]; [26]
  IL1R-II Titer: 184.5 µg/mL
  Productivity: 22.2 pg IL-1R-II/cell/day
[1]; [27]
  IL1R-II Titer: 492.0 µg/mL
  Productivity: 26.3 pg IL-1R-II/cell/day
[1]; [28]
  IL1R-II Titer: 488.5 µg/mL
  Productivity: 20.7 pg IL-1R-II/cell/day
[2]; [29]
  viability at 6 day, 10 μM: 70.3%
  viability at 8 day, 10 μM: 49%
  viability at 0 day, 15 μM: 94.2%
  viability at 3 day, 15 μM: 88.9%
  viability at 6 day, 15 μM: 85.9%
  viability at 8 day, 15 μM: 33.2%
  viability at 0 day, 20 μM: 94.2%
  viability at 3 day, 20 μM: 93.3%
  viability at 6 day, 20 μM: 77%
  viability at 8 day, 20 μM: 48.4%
[2]; CHO cell line 25H9 producing IL-1R-II, 31° C.
  viability at 0 day, 10 μM: 94.2%
[2]; [30]
  viability at 0 day, 10 μM: 94.2%
  viability at 3 day, 10 μM: 91.8%
[2]; [31]
  viability at 3 day, 10 μM: 89.3%
  viability at 6 day, 10 μM: 79.6%
  viability at 8 day, 10 μM: 63.5%
  viability at 0 day, 15 μM: 94.2%
  viability at 3 day, 15 μM: 97.6%
  viability at 6 day, 15 μM: 78.9%
  viability at 8 day, 15 μM: 57.6%
  viability at 0 day, 20 μM: 94.2%
  viability at 3 day, 20 μM: 87.7%
  viability at 6 day, 20 μM: 77.9%
  viability at 8 day, 20 μM: 57.2%
[2]; [32]
  viability at 0 day, 10 μM: 94.2%
  viability at 3 day, 10 μM: 85.4%
  viability at 6 day, 10 μM: 71.7%
  viability at 8 day, 10 μM: 42.3%
  viability at 0 day, 15 μM: 94.2%
  viability at 3 day, 15 μM: 87.6%
  viability at 6 day, 15 μM: 65.4%
  viability at 8 day, 15 μM: 36.1%
  viability at 0 day, 20 μM: 94.2%
  viability at 3 day, 20 μM: 89.1%
  viability at 6 day, 20 μM: 64.7%
  viability at 8 day, 20 μM: 41.1%
[3]; day 0
  Titer of IL-1R-II: 0.0 mg/L
[3]; day 2
  Productivity: 12.2 pg of IL-1RII/cell/day
  Titer of IL-1R-II: 58.5 mg/L
[3]; day 5
  Productivity: 13.3 pg of IL-1RII/cell/day
  Titer of IL-1R-II: 148.5 mg/L
[3]; day 7
  Productivity: 14.1 pg of IL-1RII/cell/day
  Titer of IL-1R-II: 197.5 mg/L
[3]; day 9
  Productivity: 14.9 pg of IL-1RII/cell/day
  Titer of IL-1R-II: 238.4 mg/L
